The test system of assay [1] is HeLa cells expressing KRAS G12D. As to the kind of experiment: Live-cell imaging of cell fate, HeLa KRAS G12D. The format is cell-based, human. The conditions noted are these: Poloppin at GI50 dose, 3% in DMSO controls. How it is done: (§1) Five x10^4 cells were seeded on each well of 4-well coverglass Lab-Tek chambers in a volume of 800 μl. HeLa-G12D cells were induced with Doxycycline (Dox) 24h before seeding and kept in Dox for the rest of the experiment.
(§2) For live cell imaging analysis image sequences were viewed using ImageJ software and cell fate was analysed manually. Time spent in mitosis for different groups was compared with a Kruskal-Wallis test and Dunn's multiple comparison correction.

Assay [2] relates to MEFs KRAS MUT p53 MUT. In words: Cell viability in MEFs, KRAS MUT p53 MUT. The assay is classed as cell-based. The conditions noted are these: Mus musculus. As to the method: KrasWT mouse embryonic fibroblasts (MEFs) were derived from conditional LSL-Trp53^R172H/+ embryos. LSL-Trp53^R172H/+, LSL-Kras^G12D/+ ([Hingorani et al., 2005]) strains were interbred to obtain LSL-Kras^G12D/+, LSL-Trp53^R172H/+ Kras^G12D embryos for MEF preparation. Briefly, MEFs were derived from E13.5 embryos after decapitation and evisceration. Finely minced tissue was passed through a 16-G needle two or three times before dissociated cells were cultured in DMEM with 10% FBS. Cre-mediated recombination to activate the Kras^G12D allele was induced via addition of 500nM 4-OH Tamoxifen to the culture media overnight.

The subject of assay [3] is Panc 05.04. As to the kind of experiment: Cell viability (SRB), Panc 05.04. The conditions noted are these: Homo sapiens, Panc 05.04, 72 h. The format is cell-based. As to the method:
SW48 Parental, SW48 G12D, Panc-1, HPAF-II, Panc 02.03 and Panc 05.04 cell lines were seeded overnight at 5000 cells per well in a 96 well plate in recommended media (ATCC). Compounds were added the following day and viability was measured at 72h using the sulforhodamine B (SRB) colorimetric assay as follows. Cells were fixed by replacing media with 1% v/v Trichloroacetic Acid (TCA) (Sigma-Aldrich) at 4°C and incubated for 1h also at 4°C. Wells were washed thoroughly with copious amounts of deionised water before staining with Sulforhodamine B (SRB) (Sigma-Aldrich) solution (0.057% w/v in 1% v/v Acetic Acid (VWR)) for 30 min. Stain was aspirated and wells washed with several changes of 1% v/v Acetic Acid until unbound stain was removed, before air-drying. Bound stain was solubilized with 100μl / well 10mM Tris (pH 8.0) (Trizma Base (121.1) Sigma-Aldrich) with agitation for 10 min. Fluorescence intensity was recorded at Ex540nm / Em590nm using a BMG Pherastar Plus plate reader ([Vichai and Kirtikara, 2006]).
Pancreatic organoids were extracted and cultured as detailed above ([Boj et al., 2015]). In brief, pancreatic organoids were seeded at 600 cells per well in a 96 well plate and allowed to grow for 7 days with media replenishment on the 3rd day. Full-grown organoids were then treated with compounds for 72h and viability determined using CellTitre Glo 3D assay (Promega). For viability assays with c-MET siRNA, cells were reverse transfected in a 6 cm dish using Dharmafect 1 (GE Dharmacon) per manufacturer’s instructions. On the following day, cells were trypsinised and plated onto 96 well plates or 6 well plates. The 96 well plates were treated with a dose range of compounds or DMSO, and viability was determined via SRB colorimetric assay. […]
Cells were reverse-transfected with 50nM (SW48 parental, SW48 KRAS G12D and Panc-1) or 25nM (HeLa Flp-In T-REx parental cells) siRNA using Dharmafect (GE Dharmacon) as manufacturer’s recommendations. […] Viability was assessed after 72 hrs, with the SRB colorimetric assay. Knockdown efficiencies were determined by Western blot or RT-qPCR. […]

For assay [4], the system named is parental HeLa cells. As to the kind of experiment: Live-cell imaging of cell fate, parental HeLa. The assay is classed as cell-based, human. The conditions noted are these: wild-type HeLa. How it is done: as §1, §2
The target in assay [5] is T1, NanoLuc-PLK2 fusion protein (Homo sapiens, UniProt Q9NYY3).
T1 construct: NanoLuc fused to the N-termini of full-length human PLK1, PLK2, PLK3, PLK4 or p38α MAPK; expressed in transfected cells; host or cells: HeLa, transient, digitonin-permeabilised
T1 sequence (Q9NYY3 whole entry, the tested form may be a part): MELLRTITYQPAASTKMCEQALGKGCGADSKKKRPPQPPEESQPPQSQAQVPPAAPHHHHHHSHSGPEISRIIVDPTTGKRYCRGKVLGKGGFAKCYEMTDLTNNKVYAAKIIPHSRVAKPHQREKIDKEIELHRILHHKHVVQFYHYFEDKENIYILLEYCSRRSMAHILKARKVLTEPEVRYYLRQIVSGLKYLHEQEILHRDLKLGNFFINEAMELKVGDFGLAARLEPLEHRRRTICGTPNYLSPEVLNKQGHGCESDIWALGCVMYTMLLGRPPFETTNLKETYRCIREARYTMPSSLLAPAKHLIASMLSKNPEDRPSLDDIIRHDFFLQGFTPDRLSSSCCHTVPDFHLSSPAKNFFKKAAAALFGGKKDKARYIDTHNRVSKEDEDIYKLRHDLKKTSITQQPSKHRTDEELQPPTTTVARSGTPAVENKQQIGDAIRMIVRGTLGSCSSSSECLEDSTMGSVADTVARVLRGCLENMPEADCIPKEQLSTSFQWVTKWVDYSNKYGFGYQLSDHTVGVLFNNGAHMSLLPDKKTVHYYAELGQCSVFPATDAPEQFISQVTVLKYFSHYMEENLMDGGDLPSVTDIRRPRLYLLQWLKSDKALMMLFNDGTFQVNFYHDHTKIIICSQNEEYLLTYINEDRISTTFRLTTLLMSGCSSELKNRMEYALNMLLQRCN
In words: NanoLuc thermal shift assay. The conditions noted are these: compound at 100 μM. The format is cell-based. How it is done: (§3) HeLa cells were transfected with plasmids encoding NanoLuc fused to the N-termini of full-length human PLK1, PLK2, PLK3, PLK4 or p38α MAPK. Twenty-four h after transfection, the thermal stability of the fusion proteins was tested using a modified version of the assay protocol supplied by Promega. Briefly, cells were harvested by tyrpsinisation and centrifugation, counted, and resuspended to 200,000 cells/ml in 3mls of serum-free OptiMEM media. Cells were then permeabilised using with 50ug/ml digitonin in DMSO for 5 min and incubated with test compounds at 100uM, plus protease inhibitor cocktail (Promega G6521), in a final concentration of 5% DMSO for 1 h at 37°C. After incubation, 100 μl/well of cells were aliquoted into a 96-well, thin-walled PCR plate and then heated for 3 minutes using a pre-warmed MJ Tetrad DNA Engine set to run a temperature gradient of 42 to 66°C. The plates were then cooled to room temperature for 10 min, and then 80μl of each sample was transferred to a white-walled 96-well Nunc plate before NanoBRET™ NanoGlo Substrate diluted in Opti-MEM was added. NanoLuc enzyme activity was read out within 10 min using a BMG Clariostar plate reader.

In assay [6] the target is T2, NanoLuc-PLK3 fusion protein (Homo sapiens, UniProt Q9H4B4).
T2 construct: NanoLuc fused to the N-termini of full-length human PLK1, PLK2, PLK3, PLK4 or p38α MAPK; expressed in transfected cells; host or cells: HeLa, transient, digitonin-permeabilised
T2 sequence (Q9H4B4 whole entry, the tested form may be a part): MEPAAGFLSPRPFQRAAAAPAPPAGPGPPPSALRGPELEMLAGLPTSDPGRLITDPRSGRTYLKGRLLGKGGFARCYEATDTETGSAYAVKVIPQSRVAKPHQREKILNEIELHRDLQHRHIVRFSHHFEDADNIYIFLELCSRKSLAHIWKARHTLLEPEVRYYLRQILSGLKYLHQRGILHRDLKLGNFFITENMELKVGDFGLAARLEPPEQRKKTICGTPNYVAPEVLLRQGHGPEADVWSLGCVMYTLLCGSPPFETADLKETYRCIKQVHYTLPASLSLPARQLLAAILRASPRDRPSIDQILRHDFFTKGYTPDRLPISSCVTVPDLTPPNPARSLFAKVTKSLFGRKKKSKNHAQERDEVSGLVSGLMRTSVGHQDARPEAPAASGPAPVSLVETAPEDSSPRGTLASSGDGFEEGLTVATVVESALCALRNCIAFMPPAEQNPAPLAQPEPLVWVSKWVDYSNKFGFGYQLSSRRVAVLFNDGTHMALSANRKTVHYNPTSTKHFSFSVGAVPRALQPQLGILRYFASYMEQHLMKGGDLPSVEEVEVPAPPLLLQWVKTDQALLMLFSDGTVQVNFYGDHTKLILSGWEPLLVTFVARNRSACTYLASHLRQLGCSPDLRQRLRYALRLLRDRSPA
In words: NanoLuc thermal shift assay. The format is cell-based. The conditions noted are these: compound at 100 μM. How it is done:
as §3

The record followed here is PMC5563081, “Modulating Protein-Protein Interactions of the Mitotic Polo-like Kinases to Target Mutant KRAS” (Cell Chemical Biology, 2017).

Where two headings read alike, the source gives them in different places.

By GI50 is commonly meant the concentration giving 50% growth inhibition. Broadly, the EC50 is the midpoint of the concentration-response curve.

Consider `O=C(O)CCc1ccc(-c2ccc(Br)cc2)n1-c1ccccc1C(F)(F)F` [Poloppin], for which, in assay [1], the “frequency of death in mitosis” value stood at 36%. In addition, the GI50 in assay [2] (MEFs KRAS MUT p53 MUT) was 49.5 ± 1.05 µM; in assay [2] (MEFs KRAS MUT p53 MUT+4OHT) it was 17.6 ± 1.22 µM. Further, the EC50 in assay [3] (read-out: EC50, % survival, Panc 05.04, All Stars control siRNA, 72 h) was determined as 23.8 ± 1.08 µM; in assay [3] (read-out: EC50, % survival, Panc 05.04, siMET, 72 h) it was 11.6 ± 1.07 µM. Moreover, the “average time in mitosis” value in assay [4] (Poloppin at GI50 dose (10μM), 60 min without) is reported as 100 min. In assay [4] (Poloppin at GI50 dose, 4% after DMSO), the “frequency of aneuploid divisions” value stood at 38%. Also, in assay [5], the “thermal stability of NanoLuc-PLK2” value is “increases the thermal stability”. In addition, the “thermal stability of NanoLuc-PLK3” value in assay [6] is “increases the thermal stability”.
